Measurements taken from patent US20240016795A1, “BROMODOMAIN INHIBITORS FOR ANDROGEN RECEPTOR-DRIVEN CANCERS” (FORMA Therapeutics, Inc., priority 2020, published 2024).
Where “and” joins values, the source holds several entries; their conditions need not be identical. Identical values can stand only once.

Experiments:
H3K27Ac [1] = assay: H3K27Ac western blot in MDA-MB-453 cells; type: cell-based; settings: MDA-MB-453, 24 hrs, western blot
Procedure: H3K27Ac is a specific mark of CBP/p300 activity and thus offers a means to directly assess the impact of CBP/p300 inhibition in cells.
MDA-MB-453 cells were plated overnight and exposed to the compounds for 24 hours. Lysates were prepared from the cells in E-PAGE loading buffer (Invitrogen) and analyzed by western blot with antibodies diluted 1:1000 for anti-H3K27Ac, 1:2000 for anti-total H3 and 1:10,000 for anti-β actin. The blots were scanned and analyzed on a LI-COR Odyssey image analyzer. H3K27Ac levels were normalized to β-Actin.
Finally, a washout experiments was carried out with compound 4 to assess the recovery of the biomarker after removal of the compound. […] Lysates were prepared and analyzed by western blot, as described above.

AR target genes [2] = assay: Reduction of AR target genes in 22Rv1 cells; type: cell-based; settings: Homo sapiens, 24 hr exposure
Procedure: (§1) RNA was extracted using Qiacube RNAeasy Mini (Qiagen). For all genes tested, the qPCR reactions were carried out in triplicate with 250 ng RNA per reaction and Taqman® primer-probes. GAPDH was used as a housekeeping gene.

SORD = assay: qPCR gene expression in VCaP, SORD; type: cell-based; settings: Homo sapiens, 24 h
Procedure: as §1

[3] = tested on: AR-negative prostate cancer cell lines DU145 and PC-3; assay: 10-day proliferation assay, AR-negative prostate cancer cell lines; type: cell-based; settings: 10-day assay
Procedure: Two AR-negative prostate cancer cell lines DU145 and PC-3 were also evaluated.
Prostate cell lines were obtained from ATCC or DSMZ and cultured according to the distributor's recommendations. Prostate cancer cells were plated and incubated overnight. […] Cell viability was assessed using a CellTiter-Glo® assay (Promega) after 10 days drug exposure. The growth inhibitory effect was assessed by the concentration inhibiting growth by 50% using a nonlinear regression equation and a variable slope (Graphpad Prism).

BT549 = assay: 10-day CellTiter-Glo antiproliferative assay, BT549; type: cell-based; settings: Homo sapiens, BT-549, 240 h, 10-day exposure, AR Low, ER −, Her2 −
Procedure: (§2) Breast cell lines were cultured according to the distributor's recommendations. The following day, cells were exposed to compounds up to 10 days. Cell viability was assessed using a CellTiter-Glo® assay (Promega) at the end of the incubation period. The growth inhibitory effect was assessed by the concentration inhibiting growth by 50% using a nonlinear regression equation and a variable slope (Graphpad Prism). The mRNA expression levels for the androgen receptor (HUGO: AR) was determined from the DepMap Portal database (release 19Q2).

CAMA1 = assay: 10-day CellTiter-Glo antiproliferative assay, CAMA1; type: cell-based; settings: Homo sapiens, CAMA-1, 240 h, 10-day exposure, AR High, ER +, Her2 −
Procedure: as §2

AR-v7 = AR-v7 protein level by western blot in prostate cancer cells; type: cell-based
MYC [4] = assay: qPCR gene expression in 22Rv1, MYC; type: cell-based; settings: Homo sapiens, 22Rv1, 24 h
Procedure: as §1

[5] = tested on: panel of 10 BRD representing the various branches of the bromodomain tree; assay: AlphaScreen panel of 10 bromodomains; type: binding
p300 bromodomain = p300 bromodomain (Homo sapiens (Human), UniProt Q09472); assay: Time-resolved fluorescence biochemical assay, p300; type: binding; settings: GST fusion of the p300 bromodomain
Sequence of p300 bromodomain (Q09472 1049-1156): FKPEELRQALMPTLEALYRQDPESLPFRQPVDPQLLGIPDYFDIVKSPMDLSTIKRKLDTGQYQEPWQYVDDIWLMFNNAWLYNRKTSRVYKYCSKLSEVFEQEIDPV
Description: Data is fitted using the Levenburg Marquardt algorithm. […] Data is fitted using the Levenburg Marquardt algorithm.

KLK3 (PSA) [6] = assay: qPCR gene expression in 22Rv1, KLK3 (PSA); type: cell-based; settings: Homo sapiens, 22Rv1, 24 h
Procedure: as §1

AR = AR protein level by western blot in prostate cancer cells; type: cell-based
AR target genes [7] = assay: Reduction of AR target genes in VCaP cells; type: cell-based; settings: Homo sapiens, 24 hr exposure
Procedure: as §1

[8] = tested on: human kinases and disease-relevant mutant variants; assay: KINOMEscan screen; type: binding
KLK3 (PSA) [9] = assay: qPCR gene expression in VCaP, KLK3 (PSA); type: cell-based; settings: Homo sapiens, 24 h
Procedure: as §1

TMPRSS2 = assay: Taqman gene expression in AR-positive breast cancer cells, TMPRSS2; type: cell-based; settings: 24 hours, read-out: IC50, TMPRSS2 mRNA
Procedure: (§3) AR-positive breast cancer cells were exposed to increasing concentrations of compounds for 24 hours. RNA was extracted and gene expression measured using Taqman® assays for TMPRSS2 and XBP1.

H3K27Ac [10] = assay: H3K27Ac western blot in a prostate cancer cell line; type: cell-based
KLK3 = assay: qPCR gene expression in AR-v7+ prostate cancer cells, KLK3; type: cell-based; settings: 24 h
Procedure: (§4) AR-v7+ prostate cancer cells were exposed to compounds 1, 2, 3, or 4 for 24 h. RNA was extracted and gene expression was measured by qPCR using Taqman® primer-probes. GAPDH was used as a housekeeping gene.

MYC [11] = assay: qPCR gene expression in AR-v7+ prostate cancer cells, MYC; type: cell-based; settings: 24 h
Procedure: as §4

XBP1 = assay: Taqman gene expression in AR-positive breast cancer cells, XBP1; type: cell-based; settings: 24 hours, read-out: IC50, XBP1 mRNA
Procedure: as §3

`COC(=O)N1c2ccc3c(nc([C@H](O)c4cc(F)ccc4OC)n3[C@@H]3CCC[C@@H](C(=O)O)C3)c2CC[C@@H]1C` [Compound 1, (1R,3R)-3-[(7S)-2-[(R)-(5-fluoro-2-methoxyphenyl)(hydroxy)methyl]-6-(methoxycarbonyl)-7-methyl-3H,6H,7H,8H,9H-imidazo[4,5-f]quinolin-3-yl]cyclohexane-1-carboxylic acid] was tested, and the H3K27Ac level (H3K27Ac [1]) was “concentration dependent reduction”, the IC50 (AR target genes [2]) was less than 500 nM and the IC50 (SORD) was greater than 0.1 µM. The “antiproliferative effect, AR-negative cell lines” value [3] was “inactive”, the IC50 (BT549) was greater than 1 µM and the IC50 (CAMA1) was less than 0.2 µM. For the same compound, the “AR-v7 reduction maintained after removal of compound” value (AR-v7; 22Rv1, after a 24 hr exposure) was 72 h, the AR-v7 protein level (AR-v7; androgen-independent (AR-v7+) prostate cancer cells, western blot) was “reduced” and the IC50 (MYC [4]) was greater than 0.1 µM. The “activity against panel of bromodomains” value [5] was “inactive against 8”, the IC50 ([5]; read-out: IC50 in multiple assays of the panel of 10 bromodomains) was greater than 10000 nM and the IC50 (p300 bromodomain) was < 2 nM and ~1 nM. For the same compound, the IC50 (KLK3 (PSA) [6]) was 0.01 to 0.05 µM, the “return of AR to baseline level following removal of compound” value (AR; 22Rv1, after a 24 hr exposure) was no more than 24 h and the AR protein level (AR; androgen-independent and androgen-dependent prostate cancer cell lines, western blot) was “dose dependent reduction”. The IC50 (AR target genes [7]) was less than 500 nM, the “binding affinity for kinases” value [8] was “no to low binding affinity” and the IC50 (KLK3 (PSA) [9]) was 0.01 to 0.05 µM. For the same compound, the IC50 (TMPRSS2) was less than 100 nM, the H3K27Ac level (H3K27Ac [10]) was “reduces H3K27Ac in a concentration-dependent manner” and the IC50 (KLK3) was 10 to 50 nM. It also gave an IC50 (MYC [11]) greater than 100 nM and an IC50 (XBP1) of less than 100 nM.
